# pIC50: −log10 of the molar value. Where a name gives a salt, the structure may show the parent alone.
# Legend:
# [1] = biological target: T1, human JAK3 (a.a. 781-1124) (Homo sapiens, UniProt P52333); assay: In vitro JAK kinase assay (HTRF), JAK3; format: biochemical; details: JAK3, 3 μM ATP; read-out: EXAMPLE A JAK2-JAK3 HTRF-2 IC50
# T1 construct: JAK3 (a.a. 781-1124); His tag (N); made in house; host or cells: insect cells (baculovirus)
# Method in brief: (§1)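 His-tagged catalytic domains from baculovirus-infected insect cells phosphorylated 500 nM biotinylated peptide in 50 mM Tris pH 7.8, 100 mM NaCl, 5 mM DTT, 0.01% BSA for 1 h at room temperature. ATP was 90 μM (JAK1), 30 μM (JAK2), 3 μM (JAK3). Detection used Eu-Py20/SA-APC; IC50s were derived.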
# [2] = system: JAK2_INA61 (cancer cell line dependent on cytokines and JAK/STAT signal transduction); assay: Cellular assay: viability of cytokine-dependent cancer cell line (CellTiter-Glo); format: cell-based; details: 72 hours, read-out: EXAMPLE B JAK2_INA61 IC50
# Protocol: One or more compounds herein were tested for inhibitory activity of JAK targets according to at least one of the following cellular assays.
# Compounds were added to the cells in DMSO/media (final concentration 0.2% DMSO) and incubated for 72 hours at 37° C., 5% CO2. The effect of compound on cell viability was assessed using the CellTiter-Glo Luminescent Cell Viability Assay (Promega) followed by TopCount (Perkin Elmer, Boston, Mass.) quantitation. Potential off-target effects of compounds were measured in parallel using a non-JAK driven cell line with the same assay readout. […] All experiments were performed in duplicate.
# [3] = biological target: T2, human JAK1 (a.a. 837-1142) (Homo sapiens, UniProt P23458); assay: In vitro JAK kinase assay (HTRF), JAK1; format: biochemical; details: JAK1, 90 μM ATP; read-out: EXAMPLE A JAK2-JAK1 HTRF-2 IC50
# T2 construct: human JAK1 (a.a. 837-1142); His tag (N); made in house; host or cells: insect cells (baculovirus)
# Method in brief: as §1
# [4] = biological target: TF1-BCRABL1 cells (Homo sapiens, UniProt P00519); assay: ABL1 cell based assay: viability of ABL1-dependent cell line (CellTiter-Glo); details: 72 hours, cell viability; read-out: EXAMPLE F JAK2-TF1-BCRABL1 IC50
# Method in brief: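 ABL1-dependent cells plated at 3000 per well in RPMI 1640 with 10% FBS and exposed to compounds for 72 h at 37° C, 5% CO2, 0.2% DMSO final. Viability read by CellTiter-Glo luminescence; duplicate or more.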
# [5] = biological target: T3, human JAK2 (a.a. 828-1132) (Homo sapiens, UniProt O60674); assay: In vitro JAK kinase assay (HTRF), JAK2; format: biochemical; details: JAK2, 30 μM ATP; read-out: EXAMPLE A HTS-JAK2 HTRF-2 IC50
# T3 construct: JAK2 (a.a. 828-1132); His tag (N); made in house; host or cells: insect cells (baculovirus)
# Method in brief: as §1
# T1 sequence (P52333 781-1124): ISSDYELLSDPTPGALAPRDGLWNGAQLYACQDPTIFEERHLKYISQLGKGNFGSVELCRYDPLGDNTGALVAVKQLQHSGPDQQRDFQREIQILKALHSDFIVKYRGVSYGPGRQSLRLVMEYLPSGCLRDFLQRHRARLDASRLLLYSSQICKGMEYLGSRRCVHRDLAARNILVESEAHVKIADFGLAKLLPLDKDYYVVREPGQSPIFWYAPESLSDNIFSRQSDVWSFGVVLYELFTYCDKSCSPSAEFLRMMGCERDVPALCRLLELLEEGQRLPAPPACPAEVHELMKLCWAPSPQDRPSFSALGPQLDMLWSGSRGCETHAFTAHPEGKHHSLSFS
# T3 sequence (O60674 828-1132): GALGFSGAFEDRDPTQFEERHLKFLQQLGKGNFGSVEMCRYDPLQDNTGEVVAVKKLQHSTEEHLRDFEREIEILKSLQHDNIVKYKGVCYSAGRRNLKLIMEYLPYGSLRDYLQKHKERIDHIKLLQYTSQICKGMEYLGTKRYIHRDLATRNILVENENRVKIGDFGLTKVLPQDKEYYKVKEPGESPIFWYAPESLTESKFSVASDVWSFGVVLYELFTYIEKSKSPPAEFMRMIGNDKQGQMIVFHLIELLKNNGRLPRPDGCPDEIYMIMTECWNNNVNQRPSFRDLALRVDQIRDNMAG
# Chain of TF1-BCRABL1 cells (P00519 whole entry, change not shown): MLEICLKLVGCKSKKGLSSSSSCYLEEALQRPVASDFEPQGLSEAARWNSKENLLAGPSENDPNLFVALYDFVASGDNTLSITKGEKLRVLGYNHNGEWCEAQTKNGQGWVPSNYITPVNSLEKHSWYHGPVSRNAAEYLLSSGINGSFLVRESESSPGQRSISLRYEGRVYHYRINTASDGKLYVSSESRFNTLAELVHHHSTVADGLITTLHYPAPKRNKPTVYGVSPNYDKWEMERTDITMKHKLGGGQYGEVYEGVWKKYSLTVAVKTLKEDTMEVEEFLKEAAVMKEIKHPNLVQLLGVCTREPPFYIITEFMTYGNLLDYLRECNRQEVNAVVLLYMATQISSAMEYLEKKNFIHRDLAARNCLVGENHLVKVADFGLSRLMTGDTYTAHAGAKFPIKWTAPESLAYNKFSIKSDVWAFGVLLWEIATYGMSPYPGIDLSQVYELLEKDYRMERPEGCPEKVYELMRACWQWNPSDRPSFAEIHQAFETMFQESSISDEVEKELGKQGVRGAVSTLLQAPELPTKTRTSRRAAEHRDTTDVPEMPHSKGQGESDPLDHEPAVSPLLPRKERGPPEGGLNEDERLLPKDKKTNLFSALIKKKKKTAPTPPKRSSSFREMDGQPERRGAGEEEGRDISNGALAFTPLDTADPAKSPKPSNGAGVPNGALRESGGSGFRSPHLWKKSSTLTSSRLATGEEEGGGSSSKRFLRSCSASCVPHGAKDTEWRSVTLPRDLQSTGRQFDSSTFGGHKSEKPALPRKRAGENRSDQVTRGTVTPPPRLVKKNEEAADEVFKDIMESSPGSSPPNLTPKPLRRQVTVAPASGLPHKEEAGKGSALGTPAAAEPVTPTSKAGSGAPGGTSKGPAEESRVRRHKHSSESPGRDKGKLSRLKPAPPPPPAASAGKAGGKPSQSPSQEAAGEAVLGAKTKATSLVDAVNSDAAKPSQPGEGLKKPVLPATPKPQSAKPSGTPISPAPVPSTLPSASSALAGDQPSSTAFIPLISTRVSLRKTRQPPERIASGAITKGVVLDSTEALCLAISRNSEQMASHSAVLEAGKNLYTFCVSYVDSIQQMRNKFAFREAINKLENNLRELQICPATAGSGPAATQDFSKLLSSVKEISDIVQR
# T2 sequence (P23458 849-1154): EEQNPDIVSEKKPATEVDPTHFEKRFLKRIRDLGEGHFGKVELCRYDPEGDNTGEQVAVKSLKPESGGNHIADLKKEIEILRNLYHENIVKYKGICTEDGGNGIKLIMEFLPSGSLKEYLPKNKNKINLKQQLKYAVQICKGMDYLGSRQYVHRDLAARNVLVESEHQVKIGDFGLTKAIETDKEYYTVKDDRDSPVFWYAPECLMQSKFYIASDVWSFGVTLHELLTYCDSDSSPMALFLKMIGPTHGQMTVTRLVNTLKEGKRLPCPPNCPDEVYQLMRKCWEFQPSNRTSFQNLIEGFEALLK
SMILES,pIC50 [1],pIC50 [2],pIC50 [3],pIC50 [5],GI50 [4]
"Cc1ccc(NC(=O)c2cc(C(F)(F)F)ccc2C(F)(F)F)cc1-c1ccc2[nH]c3ncncc3c2c1 [Example 45, N-[4-methyl-3-(9H-pyrimido-[4,5-b]indol-6-yl)phenyl]-2,5-bis(trifluoromethyl)benzamide]",< 6.00,< 6.00,≥ 6.30,< 6.00,500 to 1000 nM
"Cc1ccc(NC(=O)c2cc(C(F)(F)F)cc(Cl)c2F)cc1-c1ccc2[nH]c3ncncc3c2c1 [Example 46, 3-chloro-2-fluoro-N-[4-methyl-3-(9H-pyrimido[4,5-b]indol-6-yl)phenyl]-5-(trifluoromethyl)-benzamide]",< 6.00,< 6.00,≥ 6.30,≥ 6.30,≤ 500 nM
"Cc1ccc(NC(=O)Nc2cccc(C(F)(F)F)c2)cc1-c1ccc2[nH]c3ncncc3c2c1 [Example 48, N-[4-Methyl-3-(9H-pyrimido[4,5-b]indol-6-yl)phenyl]-N′-[3-(trifluoromethyl)-phenyl]urea]",6.00 to 6.30,6.00 to 6.30,≥ 6.30,< 6.00,≤ 500 nM
"N#Cc1ccc(C(=O)Nc2cccc(C(F)(F)F)c2)cc1-c1ccc2c(c1)[nH]c1ncncc12 [Example 51, 4-Cyano-3-(9H-pyrimido[4,5-b]indol-7-yl)-N-[3-(trifluoromethyl)phenyl]-benzamide]",< 6.00,< 6.00,≥ 6.30,≥ 6.30,≤ 500 nM
"Cc1cnc(NC(=O)c2ccc(C)c(-c3ccc4c(c3)[nH]c3ncncc34)c2)s1 [Example 57, 4-methyl-N-(5-methyl-1,3-thiazol-2-yl)-3-(9H-pyrimido-[4,5-b]indol-7-yl)benzamide]",< 6.00,< 6.00,≥ 6.30,< 6.00,≤ 500 nM
"O=C(Nc1cccc(C(F)(F)F)c1)c1cccc(-c2ccc3c(c2)[nH]c2ncncc23)c1 [Example 59, 3-(9H-pyrimido[4,5-b]indol-7-yl)-N-[3-(trifluoromethyl)-phenyl]benzamide]",< 6.00,< 6.00,≥ 6.30,≥ 6.30,500 to 1000 nM
"COc1ccc(C(=O)Nc2cccc(C(F)(F)F)c2)cc1-c1ccc2c(c1)[nH]c1ncncc12 [Example 60, 4-methoxy-3-(9H-pyrimido-[4,5-b]indol-7-yl)-N-[3-(trifluoromethyl)phenyl]-benzamide]",6.00 to 6.30,< 6.00,≥ 6.30,≥ 6.30,≤ 500 nM
"Cc1ccc(C(=O)N[C@H](C)c2ccccc2)cc1-c1ccc2c(c1)[nH]c1ncncc12 [Example 63, 4-methyl-N-[(1R)-1-phenylethyl]-3-(9H-pyrimido[4,5-b]indol-7-yl)benzamide]",6.00 to 6.30,< 6.00,< 6.00,< 6.00,500 to 1000 nM
"Cc1ccc(C(=O)Nc2cccc(S(F)(F)(F)(F)F)c2)cc1-c1ccc2c(c1)[nH]c1ncncc12 [Example 65, 4-methyl-N-[3-(pentafluoro-λ(6)-sulfanyl)phenyl]-3-(9H-pyrimido[4,5-b]indol-7-yl)-benzamide]",≥ 6.30,6.00 to 6.30,≥ 6.30,≥ 6.30,≤ 500 nM
"Cc1ccc(C(=O)Nc2cccc(C(F)(F)F)c2)cc1-c1ccc2c(c1)[nH]c1ncccc12 [Example 68, 4-Methyl-3-(9H-pyrido[2,3-b]indol-7-yl)-N-[3-(trifluoromethyl)phenyl]benzamide, trifluoroacetate salt]",≥ 6.30,< 6.00,≥ 6.30,≥ 6.30,≤ 500 nM
"Cc1ncc(NC(=O)c2cccc(C(F)(F)F)c2)cc1-c1ccc2c(c1)[nH]c1ncncc12 [Example 70, N-[6-methyl-5-(9H-pyrimido[4,5-b]indol-7-yl)pyridin-3-yl]-3-(trifluoromethyl)benzamide]",≥ 6.30,6.00 to 6.30,≥ 6.30,≥ 6.30,≤ 500 nM

# Now from value to molecule, other results behind:
pIC50 [1],pIC50 [2],pIC50 [3],pIC50 [5],SMILES,GI50 [4]
≥ 6.30,< 6.00,≥ 6.30,< 6.00,"Cc1ccc(NC(=O)c2cccc(F)c2)cc1-c1ccc2[nH]c3ncncc3c2c1 [Example 44, 3-fluoro-N-[4-methyl-3-(9H-pyrimido[4,5-b]indol-6-yl)-phenyl]benzamide]",500 to 1000 nM
≥ 6.30,< 6.00,≥ 6.30,6.00 to 6.30,"Cc1ccc(NC(=O)Nc2cccc(C(F)(F)F)c2)cc1-c1ccc2c(c1)[nH]c1ncncc12 [Example 47, N-[4-Methyl-3-(9H-pyrimido[4,5-b]indol-7-yl)phenyl]-N′-[3-(trifluoromethyl)-phenyl]urea]",≤ 500 nM
≥ 6.30,6.00 to 6.30,≥ 6.30,≥ 6.30,"Cc1cccc(NC(=O)c2ccc(C)c(-c3ccc4c(c3)[nH]c3ncncc34)c2)c1 [Example 53, 4-methyl-N-(3-methyl-phenyl)-3-(9H-pyrimido-[4,5-b]indol-7-yl)benzamide]",≤ 500 nM
≥ 6.30,6.00 to 6.30,≥ 6.30,≥ 6.30,"Cc1ccc(C(=O)Nc2cccc(OC(F)(F)F)c2)cc1-c1ccc2c(c1)[nH]c1ncncc12 [Example 54, 4-methyl-3-(9H-pyrimido-[4,5-b]indol-7-yl)-N-[3-(trifluoromethoxy)phenyl]-benzamide]",≤ 500 nM
≥ 6.30,6.00 to 6.30,< 6.00,< 6.00,"Cc1ccc(C(=O)NCc2cc(F)ccc2F)cc1-c1ccc2c(c1)[nH]c1ncncc12 [Example 55, N-(2,5-difluorobenzyl)-4-methyl-3-(9H-pyrimido-[4,5-b]indol-7-yl)benzamide]",500 to 1000 nM
≥ 6.30,< 6.00,< 6.00,< 6.00,"Cc1ccc(C(=O)NCc2cccc(C(F)(F)F)c2)cc1-c1ccc2c(c1)[nH]c1ncncc12 [Example 56, 4-methyl-3-(9H-pyrimido-[4,5-b]indol-7-yl)-N-[3-(trifluoromethyl)benzyl]-benzamide]",≤ 500 nM
≥ 6.30,< 6.00,< 6.00,< 6.00,"Cc1ccc(C(=O)Nc2nnc(C(F)(F)F)s2)cc1-c1ccc2c(c1)[nH]c1ncncc12 [Example 61, 4-methyl-3-(9H-pyrimido-[4,5-b]indol-7-yl)-N-[5-(trifluoromethyl)-1,3,4-thiadiazol-2-yl]benzamide]",500 to 1000 nM
≥ 6.30,6.00 to 6.30,≥ 6.30,≥ 6.30,"Cc1cn(-c2cc(NC(=O)c3ccc(C)c(-c4ccc5c(c4)[nH]c4ncncc45)c3)cc(C(F)(F)F)c2)cn1 [Example 62, 4-methyl-N-[3-(4-methyl-1H-imidazol-1-yl)-5-(trifluoro-methyl)phenyl]-3-(9H-pyrimido[4,5-b]indol-7-yl)-benzamide]",≤ 500 nM
≥ 6.30,< 6.00,< 6.00,< 6.00,"Cc1ccc(C(=O)N[C@@H](C)c2ccccc2)cc1-c1ccc2c(c1)[nH]c1ncncc12 [Example 64, 4-methyl-N-[(1S)-1-phenylethyl]-3-(9H-pyrimido[4,5-b]indol-7-yl)benzamide]",500 to 1000 nM
